Measured values as given in US9238639B2, “Aromatic ring compound” (TAKEDA PHARMACEUTICAL COMPANY LIMITED, priority 2012, dated 2016).

Target: T1, human GOAT (Homo sapiens, UniProt Q96T53)
T1 construct: made in house; host or cells: Sf9 insect cells (BacToBac baculovirus, pFastBac1 vector); microsome fraction
T1 sequence (Q96T53 1-435): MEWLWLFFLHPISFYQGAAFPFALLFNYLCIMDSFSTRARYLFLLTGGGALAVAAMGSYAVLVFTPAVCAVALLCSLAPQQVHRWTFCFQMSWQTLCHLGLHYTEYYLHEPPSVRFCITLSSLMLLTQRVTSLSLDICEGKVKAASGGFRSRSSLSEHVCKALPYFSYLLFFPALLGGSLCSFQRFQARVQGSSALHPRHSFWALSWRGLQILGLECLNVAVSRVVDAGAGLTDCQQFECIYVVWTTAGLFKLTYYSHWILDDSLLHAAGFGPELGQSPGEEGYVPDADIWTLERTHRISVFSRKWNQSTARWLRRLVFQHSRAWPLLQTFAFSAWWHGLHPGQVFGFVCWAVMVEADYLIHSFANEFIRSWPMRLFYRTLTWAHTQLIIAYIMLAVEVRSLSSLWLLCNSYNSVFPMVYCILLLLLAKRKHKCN
Assay: GOAT enzyme activity measurement by HTRF method (human GOAT-expressing microsome fraction)
Type: biochemical
Details: 10 μM compound; human GOAT-expressing Sf9 microsome fraction; octanoyl-CoA and Ghrelin-biotin substrates; 0% control without compound, 100% control without enzyme

SMILES	inhibition at 10 µM [%]
COC(=O)Cc1c(C)sc2cc(OCc3ccc(C(F)(F)F)nc3C)cc(Cl)c12 [Example 308, Methyl (4-chloro-2-methyl-6-((2-methyl-6-(trifluoromethyl)pyridin-3-yl)methoxy)-1-benzothiophen-3-yl)acetate]	51.5
Cc1nc(C(F)(F)F)ccc1COc1cc(Cl)c2c(CC(=O)O)c(C)sc2c1 [Example 309, (4-Chloro-2-methyl-6-((2-methyl-6-(trifluoromethyl)pyridin-3-yl)methoxy)-1-benzothiophen-3-yl)acetic acid]	103
